Assay results reported in publication PMC6943527, “Are the Hydantoin-1,3,5-triazine 5-HT6R Ligands a Hope to a Find New Procognitive and Anti-Obesity Drug? Considerations Based on Primary In Vivo Assays and ADME-Tox Profile In Vitro” (Molecules, 2019).
“Also recorded” adds a separate entry of the source.

How the values were obtained:
[1] = Elevated plus-maze (EPM) test; assay type: in vivo, male Wistar rats; conditions: for Total distance / X Ambulation / Y Ambulation: mean ± SEM
Procedure: The experiments were performed on male Wistar rats (200–220 g) obtained from an accredited animal facility at the Jagiellonian University Medical College, Poland. The animals were housed in group of four in controlled environment (ambient temperature 21 ± 2 °C; relative humidity 50%–60%; 12-h light/dark cycles (lights on at 8:00). Standard laboratory food (LSM-B) and filtered water were freely available. Animals were randomly assigned to treatment groups. All the experiments were performed by two observers unaware of the studied treatment between 9:00 and 14:00 on separate groups of animals. All animals were used only once. Procedures involving animals and their care were conducted in accordance with current European Community and Polish legislation on animal experimentation. Additionally, all efforts were made to minimize animal suffering and to use only the number of animals necessary to produce reliable scientific data. The experimental protocols and procedures described in this manuscript were approved by the I Local Ethics Commission in Cracow (no 200/2018), complied with the European Communities Council Directive of 24 November 1986 (86/609/EEC), and were in accordance with the 1996 National Institutes of Health Guide for the Care and Use of Laboratory Animals.
All compounds were suspended in 1% Tween 80 immediately before administration in a volume of 2 mL/kg. Compounds were intraperitoneally administered 60 min before testing. Control animals received vehicle (1% Tween 80) according to the same schedule.
The testing procedure was based on a method described by. The plus-maze apparatus (an automated device produced by Campden Instruments Ltd. (United Kingdom) was made of durable, high density, non-porous black plastic, elevated to a height of 50 cm, and consisted of two open arms (50 × 10 cm) and two closed arms (50 × 10 cm, and 30 cm high walls) arranged so that the two arms of each type were opposite each other. The floor of the plus-maze was made of infrared transparent material, which means that there were no visible sensors. The plus-maze apparatus was connected to PC software by a control chassis. The experiments were conducted in a darkened room, and only the center of the maze was illuminated with low-intensity light (30 lux measured on the maze level). Each rat was gently placed in the center of the plus-maze, facing one of the closed arms, immediately after a 5-min adaptation period in a plastic black box (60 × 60 × 35 cm), to increase the overall activity in the EPM. During a 5-min test period, an automated motor monitor system recorded the number of entries into the closed and open arms and the time spent in either type of arm. The device counted an effective arm-entry when the four paws of a rat were into any arm. The maze was thoroughly cleaned after each trial. The EPM test is an “unconditional” anxiety-like test based on rodents’ natural aversion to heights and open space.
The experiment was performed using an EPM apparatus (details see above). Total ambulation (the total distance covered by a rat and ambulation along the X and Y axes) was taken into account to discern drug effects on general activity from those on open-arm exploration during a 5-min test period (i.e., the time equal to the observation period in the EPM test). Rats’ behavior was not videotaped during the test.

[2] = Model of excessive eating (palatable diet), 3-week administration; assay type: in vivo, male Wistar rats
Procedure: The experiments were carried out on male Wistar rats. Their initial body weight was 210–230 g. The animals were housed in pairs in plastic cages in constant temperature facilities exposed to a light–dark cycle; water and food were available ad libitum. The control and experimental groups consisted of eight animals each. All experiments were conducted according to the guidelines of the Animal Use and Care Committee of the Jagiellonian University and were approved for realization (2013 and 2015, Poland; Permissions No 136/2013 and 258/2015).
In order to determine the anorectic activity of KMP-10, its effect on caloric and water intake in the model of excessive eating was assessed. Male Wistar rats were housed in pairs. Two groups of 8 rats were fed diets consisting of milk chocolate with nuts, cheese, salted peanuts, and 7% condensed milk; these rats also had access to a standard feed (Labofeed B, Morawski Manufacturer Feed, Poland) and water ad libitum for 3 weeks. The palatable control group (palatable diet + vehicle) received vehicle (1% Tween 80, i.p.), while the palatable test group (palatable diet + KMP-10 5 mg) was intraperitoneally injected with KMP-10 at the dose 5 mg/kg b.w./day dissolved in 1% Tween 80. The intakes of food and water were evaluated daily. On the 22th day, 20 min after the i.p. administration of heparin 1000 units/rat and thiopental (70 mg/kg b.w.), blood, peritoneal fat pads, liver were collected from animals.
The palatable diet contained 100 g of peanuts—614 kcal; 100 mL of condensed milk—131 kcal; 100 g of milk chocolate with hazelnuts—[…]; and 100 g of cheese (Greek type)—270 kcal.
The spontaneous activity of rats was measured on the 1st, 14th and 20th day of the treatment with a special RFID-system—TraffiCage (TSE-Systems, Germany). The animals were subcutaneously implanted with transmitter identification (RFID), which enabled the presence and time spent in different areas of the cage to be counted; the data were then grouped in a special computer program.
To determine the glucose or cholesterol or triglyceride levels in blood, standard enzymatic and spectrophotometric tests (Biomaxima S.A. Lublin, Poland) were used. The substrate was decomposed with enzymes that were appropriate for the relevant product, which was converted to a colored compound. Coloration was proportional to the concentration. The absorbance was measured at a wavelength of 500 nm.

5-HT1A = target: 5-HT1A; parameters: method as in PMID 30282913; conditions: radioligand binding, average of at least two independent experiments; read-out: Ki 5-HT1A [3H]-8-OH-DPAT; cited from earlier work
[3] = 0.3 mg/kg i.p., 60 min before test, 5-min session
[4] = 1 mg/kg i.p., 60 min before test, 5-min session
[5] = 3 mg/kg i.p., 60 min before test, 5-min session
[6] = 5 mg/kg b.w., vs group fed the palatable feed
[7] = model of excessive eating, 5 mg/kg b.w./day i.p.
[8] = palatable diet, 5 mg/kg b.w./day i.p., 3 weeks, vs obesity control group

## CN1CCN(c2nc(N)nc(CN3C(=O)NC(C)(c4ccc5ccccc5c4)C3=O)n2)CC1 (stereo not shown) [KMP-10, 3-((4-amino-6-(4-methylpiperazin-1-yl)-1,3,5-triazin-2-yl)methyl)-5-methyl-5-(naphthalen-2-yl)imidazolidine-2,4-dione]
[1]; [3]
  Total distance: 3240 ± 209 cm
  X Ambulation: 116 ± 18
  Y Ambulation: 98 ± 20
[1]; [4]
  Total distance: 4558 ± 205 cm
  X Ambulation: 152 ± 17
  Y Ambulation: 63 ± 12
[1]; [5]
  Total distance: 3881 ± 298 cm
  X Ambulation: 131 ± 18
  Y Ambulation: 133 ± 25
[1]; rats, doses of 1 and 3 mg/kg i.p., 60 min before test
  Anxiolytic-like activity in EPM test: showed anxiolytic-like activity
[1]; rats, i.p.
  Locomotor activity in EPM test: no changes
[1]; rats, i.p., 5-min session, ANOVA F(3,22) = 15.774, p < 0.0001
  Percentage of time spent in the open arms: increased
[1]; rats, i.p., 5-min session, ANOVA F(3,22) = 17.100, p < 0.0001
  Time spent in the open arms: increased
[1]; rats, i.p., 5-min session, ANOVA p < 0.01
  Distance travelled in the open arms: increased
[2]; [6]
  HDL cholesterol: significantly increased; also recorded: significant increase
  Total cholesterol in blood: significantly decreased
[2]; [7]
  Plasma glucose: did not reduce
  Plasma triglyceride: did not reduce
[2]; [8]
  Amount of calories consumed: significantly reduced
  Water intake: but not water intake
[2]; three-week chronic treatment, 5 mg/kg b.w./day i.p.
  Amount of peritoneal fat: did not reduce
5-HT1A
  Ki: 14.2 µM
